Measured values from patent US11197885B2, “Collagen enhancing agent made from low acyl gellan gum, methods of making and methods of using the same” (The University of Toledo, priority 2015, dated 2021).

Assays:
[1] = system: pCREB in mouse cortical neurons; assay: nuclear pCREB in midi-GAGR-treated mouse cortical neurons pre-treated with signaling inhibitors; format: cell-based; conditions: inhibitor 6 h (SU5402 4 μM, staurosporine 3 nM, U0126 10 μM, LY294002 20 μM, KN-62 10 μM, PF-573228 1 μM), then 1 μM midi-GAGR 48 h
Protocol: (§1) To analyze the effect of polysaccharides on neurite outgrowth, primary mouse cortical neurons were treated with vehicle (H2O) or 1 μM of dextran, alginate, or midi-GAGR, 0.01 μM of HA-GAGR, or 0.1 μM of LA-GAGR for 2 days prior to immunocytochemistry using anti-α-tubulin antibody and secondary Alexa488nm antibody. An etched grid coverslip containing 200 numbered boxes was used to select neurons objectively for image acquisition and analysis. A total of 24 boxes were randomly selected per treatment group. All the neurons having total neurite length longer than 4 times of the diameter of neuron cell body were chosen for image analysis. The total length of the neurites of each neuron was measured using Metamorph and used to calculate average total neurite length. To examine the effect of polysaccharides on the phosphorylation (activation) of nuclear CREB, neurons were stained with anti-pCREB antibody (Abcam & Santa Cruz biotechnologies, 2nd antibody with Alexa568nm), anti-α-tubulin antibody (Sigma, 2nd antibody with Alexa488nm), and DAPI (Sigma) after two-day incubation with vehicle (H2O) or 1 μM of dextran, alginate, or midi-GAGR, 0.01 μM of HA-GAGR, or 0.1 μM of LA-GAGR. […] The images of neurons on coverslips were taken by confocal microscopy at the same gain (850), offset (−0.01), and exposure time (2 sec). The intensity of the staining of nuclear pCREB was measured using Metamorph and used to calculate average intensity. In addition, the phosphorylation of CREB in the cytosols of mouse cortical neurons treated with polysaccharides were detected by immunoblotting. Primary mouse neurons were dissected from 16 mouse embryos (E17) and plated in the wells of 6-well plates (1×10^6 cells/well), differentiated for 6 days, and treated with polysaccharides for 48 h. Then, neurons were harvested and lysed in 1% Igepal CA-630 (Sigma)-containing PMEE buffer plus protease and phosphatase inhibitor cocktails (Sigma) for protein extraction. Extracted proteins were separated in 4-12% NuPAGE Bis-Tris protein gels (Life Technologies) and transferred to nitrocellulose membrane (GE Healthcare Life Science, Pittsburgh, Pa.) using a semidry blotter (Hoefer, Inc., San Francisco, Calif.). The protein bands on blots recognized by anti-pCREB (Santa Cruz Biotechnologies) and anti-CREB antibodies were detected on Amersham Hyperfilm™ ECL films (GE Healthcare Life Science) using SuperSignal® West Pico Chemiluminescent Substrate (Thermo Scientific).
Pharmacological agents were used to inhibit signaling molecules downstream of FGFR1 that mediate CREB phosphorylation. […] PF-573228 (PF, 1 μM) that inhibits FAK which sits at the bottleneck of the signaling pathway downstream of NCAM180 was also included to examine whether NCAM180 is involved in midi-GAGR-mediated CREB phosphorylation or not. […]

[2] = system: rat cortical neurons (E17, DIV6); assay: FGFR1 dependence of neuroprotection against 4HNE, LIVE/DEAD assay; format: cell-based
Description: The protective effect of polysaccharides on primary cortical neurons from 4HNE, H2O2, and Aβ42 peptide (Sigma) was examined using LIVE/DEAD® Viability/Cytotoxicity Assay Kit (Life Technologies). Female pregnant mice (BALB/C, E17, Charles River Laboratories International, Inc.) or female pregnant SD rats (E17, bred in house) were anesthetized and dissected to obtain 8-9 embryos per animal. Cortical neurons were isolated from embryonic brains and differentiated on poly-L-lysine-coated coverslips in B27/neurobasal medium. For drug treatment before free radical treatment, mouse cortical neurons (5 days in vitro [DIV5]) were treated with vehicle (H2O), 1 μM of 5 kD dextran (Sigma), alginate (Sigma), midi-GAGR, 0.01 μM of high acyl gellan gum (HA-GAGR, CPKelco Co.), or 0.1 μM of LA-GAGR for 24 h and then treated with 10 μM 4HNE or 50 μM H2O2 for 24 h, or 2 μM Aβ42 peptide for 48 h prior to viability/cytotoxicity assay. For drug co-treatment with free radicals, rat cortical neurons (DIV5) were treated with 1 μM of dextran, alginate, or midi-GAGR, 0.01 μM of HA-GAGR, or 0.1 μM of LA-GAGR along with either 10 μM 4HNE (24 h) or 2 μM Aβ42 peptide (48 h). […]

[3] = ABTS Antioxidant Assay Kit; format: biochemical; conditions: 10 μM
Protocol: The antioxidant capacity of midi-GAGR was measured using ABTS Antioxidant Assay Kit (Zenbio Co.). […] This was slightly stronger than antioxidant capacity of LA-GAGR (10 μM LA-GAGR=15.4 μM trolox) (Table 2).

[4] = system: mouse cortical neurons (E17, DIV5); assay: LIVE/DEAD assay, pre-treatment of mouse cortical neurons before 4HNE, H2O2 or Aβ42; format: cell-based
Description: The protective effect of polysaccharides on primary cortical neurons from 4HNE, H2O2, and Aβ42 peptide (Sigma) was examined using LIVE/DEAD® Viability/Cytotoxicity Assay Kit (Life Technologies). Female pregnant mice (BALB/C, E17, Charles River Laboratories International, Inc.) or female pregnant SD rats (E17, bred in house) were anesthetized and dissected to obtain 8-9 embryos per animal. Cortical neurons were isolated from embryonic brains and differentiated on poly-L-lysine-coated coverslips in B27/neurobasal medium. For drug treatment before free radical treatment, mouse cortical neurons (5 days in vitro [DIV5]) were treated with vehicle (H2O), 1 μM of 5 kD dextran (Sigma), alginate (Sigma), midi-GAGR, 0.01 μM of high acyl gellan gum (HA-GAGR, CPKelco Co.), or 0.1 μM of LA-GAGR for 24 h and then treated with 10 μM 4HNE or 50 μM H2O2 for 24 h, or 2 μM Aβ42 peptide for 48 h prior to viability/cytotoxicity assay. For drug co-treatment with free radicals, rat cortical neurons (DIV5) were treated with 1 μM of dextran, alginate, or midi-GAGR, 0.01 μM of HA-GAGR, or 0.1 μM of LA-GAGR along with either 10 μM 4HNE (24 h) or 2 μM Aβ42 peptide (48 h). To examine the extent to which midi-GAGR-mediated neuroprotection depends on FGFR1, rat cortical neurons (E17, DIV5) were pre-treated with 4 μM SU5402 (Sigma) for 6 h and treated with 10 μM 4HNE and either vehicle or 1 μM midi-GAGR for 24 h prior to cell viability/cytotoxicity assay. As controls, neurons were treated with SU5402, midi-GAGR, 4HNE, 4HNE plus midi-GAGR, or SU5402 plus midi-GAGR.
For cell viability/cytotoxicity measurement, neurons on glass coverslips were incubated in 1×PBS containing 2 μM calcein AM (live cells: green) and 4 μM ethidium homodimer-1 (dead cells: red) for 10 min at 37° C. Immediately thereafter, neurons were imaged by 10×objective using a fluorescence Olympus IX71 microscope (Olympus America Inc., Center Valley, Pa.) and, for the acquisition of high-quality images, using TCS SP5 multi-photon laser scanning confocal microscope.
Midi-GAGR attenuated neurite atrophy caused by free reactive radicals. It is now shown herein that midi-GAGR protect neurons from the death caused by free radical insults. The extent to which midi-GAGR protects the primary culture of rodent cortical neurons from 4HNE and H2O2 was determined. In addition to the radicals, amyloid β peptide (Aβ42) was also tested. Aβ42 peptide is a major causative factor that causes oxidative stress and neuron death. Mouse cortical neurons (E17, DIV5) were treated with 10 μM 4HNE (24 h), 50 μM H2O2 (24 h), or 2 μM Aβ42 peptide (48 h) after the treatment of the neurons with vehicle (H2O), midi-GAGR (1 μM), dextran (1 μM), alginate (1 μM), LA-GAGR (0.1 μM), or HA-GAGR (0.01 μM) for 24 h. The concentrations of 4HNE, H2O2, and Aβ42 peptide were chosen according to their patho-physiological concentrations. The concentrations of LA-GAGR and HA-GAGR were chosen because, within the same volume, the total numbers of sugar units in the polysaccharides at the concentrations are close to that of 1 μM midi-GAGR. The viability of neurons was assessed using LIVE/DEAD® Viability/Cytotoxicity Assay Kit in which membrane-permeant calcein AM is cleaved by esterase in live cells, thus yielding green fluorescence, and membrane-impermeant ethidium homodimer-1 stains the nucleic acids of plasma membrane-compromised cells with red fluorescence. The numbers of green (live) and red (dead) neurons in each condition were counted using Metamorph. Although the intensities of green fluorescent signals in neurons treated with either free radicals or Aβ42 peptide were weak, the neurons were included in the counting. About 8-9% of vehicle-treated neurons died during the process of live/dead cell assay (FIGS. 23A-23F, FIGS. 24A-24C).

[5] = system: primary mouse cortical neurons (E17, DIV4); assay: neurite outgrowth in primary mouse cortical neurons; format: cell-based; conditions: 2 days; midi-GAGR, dextran, alginate 1 μM; LA-GAGR 0.1 μM; HA-GAGR 0.01 μM
Protocol: as §1, with “Then, neurons were harvested and lysed in 1% Igepal CA-630 (Sigma)-containing PMEE buffer plus protease and phosphatase inhibitor cocktails (Sigma) for protein extraction. Extracted proteins were separated in 4-12% NuPAGE Bis-Tris protein gels (Life Technologies) and transferred to nitrocellulose membrane (GE Healthcare Life Science, Pittsburgh, Pa.) using a semidry blotter (Hoefer, Inc., San Francisco, Calif.).” left out

[6] = system: pCREB in mouse cortical neurons; assay: nuclear pCREB immunostaining in mouse cortical neurons (Example 4); format: cell-based; conditions: 48 h; midi-GAGR, alginate, dextran 1 μM; LA-GAGR 0.1 μM; HA-GAGR 0.01 μM
Protocol: (§2) To analyze the effect of polysaccharides on neurite outgrowth, primary mouse cortical neurons were treated with vehicle (H2O) or 1 μM of dextran, alginate, or midi-GAGR, 0.01 μM of HA-GAGR, or 0.1 μM of LA-GAGR for 2 days prior to immunocytochemistry using anti-α-tubulin antibody and secondary Alexa488nm antibody. An etched grid coverslip containing 200 numbered boxes was used to select neurons objectively for image acquisition and analysis. A total of 24 boxes were randomly selected per treatment group. All the neurons having total neurite length longer than 4 times of the diameter of neuron cell body were chosen for image analysis. The total length of the neurites of each neuron was measured using Metamorph and used to calculate average total neurite length. […] The intensity of the staining of nuclear pCREB was measured using Metamorph and used to calculate average intensity. In addition, the phosphorylation of CREB in the cytosols of mouse cortical neurons treated with polysaccharides were detected by immunoblotting. […] The protein bands on blots recognized by anti-pCREB (Santa Cruz Biotechnologies) and anti-CREB antibodies were detected on Amersham Hyperfilm™ ECL films (GE Healthcare Life Science) using SuperSignal® West Pico Chemiluminescent Substrate (Thermo Scientific). […]

[7] = system: pCREB in mouse cortical neurons; assay: pCREB immunoblotting of cytosols of mouse cortical neurons; format: cell-based; conditions: 48 h, same concentrations
Protocol: as §2

[8] = system: differentiated dopaminergic PC12 cells exposed to 30 μM 6-OHDA; assay: LIVE/DEAD viability of differentiated PC12 cells exposed to 6-OHDA; format: cell-based; conditions: 1 μM for 6 h, then 30 μM 6-OHDA for 24 h
Protocol: Differentiated dopaminergic PC12 cells and primary mouse embryonic cortical neurons (E17, DIV14) were treated with mock (H2O) or 1 μM of dextran, alginate, HA-GAGR, or midi-GAGR for 6 h and insulated by oxidative stressors (30 μM 6-OHDA [PC12] and 10 μM amyloid β peptide [cortical neurons]) for 24 h.

[9] = system: phosphorylated CREB in differentiated PC12 cells; assay: nuclear p-CREB immunostaining in differentiated PC12 cells; format: cell-based; conditions: 1 μM, 24 h
Protocol: (§3) Differentiated PC12 cells and mouse embryonic cortical neurons (E17, DIV14) were treated with mock, dextran, alginate, HA-GAGR, or midi-GAGR (1 μM) for 24 h and fixed in 3.7% paraformaldehyde. The fixed cells and neurons were immunostained with antibodies against α-tubulin and phosopho-CREB (p-CREB) along with DAPI (nucleus).

[10] = system: phosphorylated CREB in mouse embryonic cortical neurons; assay: nuclear p-CREB immunostaining in embryonic cortical neurons (Example 2); format: cell-based; conditions: 1 μM, 24 h
Protocol: as §3

[11] = pre-treatment 24 h (midi-GAGR, alginate, dextran 1 μM; LA-GAGR 0.1 μM; HA-GAGR 0.01 μM), then 10 μM 4HNE 24 h
[12] = pre-treatment 24 h (same concentrations), then 2 μM Aβ42 peptide 48 h
[13] = pre-treatment 24 h (same concentrations), then 50 μM H2O2 24 h

Row | Molecule | effect of inhibitor pre-treatment on average intensity of pCREB in midi-GAGR-treated neurons [1] | percent of neuron death [4, 11] | percent of neuron death [4, 12] | percent of neuron death [4, 13] | fold change in average total neurite length vs vehicle [5] | further results
1 | CN([C@@H](Cc1ccc(OS(=O)(=O)c2cccc3cnccc23)cc1)C(=O)N1CCN(c2ccccc2)CC1)S(=O)(=O)c1cccc2cnccc12 [KN-62] | decreased slightly but still statistically significantly | – | – | – | – | –
2 | Cc1c[nH]c(/C=C2\C(=O)Nc3ccccc32)c1CCC(=O)O [SU5402] | significantly decreased | – | – | – | – | percent of dead cells ([2]; SU5402 4 μM alone, no 4HNE): did not increase; percent of dead cells ([2]; SU5402 4 μM pre-treatment 6 h, then 10 μM 4HNE): ~80%
3 | [D-Glc(β1→4)D-GlcA(β1→4)D-Glc(β1→4)L-Rha(α1→3)]n [LA-GAGR] | – | 10% | ~10% | ~13% | ~1.6 fold | antioxidant capacity, ABTS assay [3]: 15.4 μM Trolox; average intensity of nuclear pCREB vs vehicle [6]: ~2 fold; levels of pCREB by immunoblotting vs control [7]: significantly increased
4 | alginate | – | reduced | did not decrease | did not reduce | did not enhance neuritogenesis | 6-OHDA-induced cell death [8]: did not; increase in levels of nuclear p-CREB [9]: not significantly increased; increase in levels of nuclear p-CREB [10]: not significantly increased
5 | CS(=O)(=O)c1cccc(CNc2nc(Nc3ccc4c(c3)CCC(=O)N4)ncc2C(F)(F)F)c1 [PF-573228] | did not decrease | – | – | – | – | –
6 | N#CC(=C(/N)Sc1ccccc1N)/C(C#N)=C(\N)Sc1ccccc1N [U0126] | significantly decreased | – | – | – | – | –
